Experimental data from ChEMBL document CHEMBL1201862, “PubChem BioAssay data set” (2004).
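Results reflect a 48-hour exposure of cells in 96-well plates to compound at five concentrations. GI50 is the concentration that inhibits growth by half.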 Activity calls are given as the source filed them. Cut-off read from the data, not from the text of the source: active = GI50 up to about 1.1 µM and inactive = higher.

Assays:
Experiment in all cases: inhibition of tumour cell growth, NCI panel, 48 h
Hs-578T = test system: Hs-578T
MOLT-4 = test system: MOLT-4
MDA-MB-231 = test system: MDA-MB-231
NCI-H460 = test system: NCI-H460
HT-29 = test system: HT-29
DU-145 = test system: DU-145
OVCAR-4 = test system: OVCAR-4
T47D = test system: T47D
NCI-H23 = test system: NCI-H23
UO-31 = test system: UO-31
NCI/ADR-RES = test system: NCI/ADR-RES
U-251 = test system: U-251
A498 = test system: A498
SW-620 = test system: SW-620
BT-549 = test system: BT-549
CAKI-1 = test system: CAKI-1
MCF7 = test system: MCF7
NCI-H522 = test system: NCI-H522

SMILES	GI50 (Hs-578T)	GI50 (MOLT-4)	GI50 (MDA-MB-231)	GI50 (NCI-H460)	GI50 (HT-29)	GI50 (DU-145)	GI50 (OVCAR-4)	GI50 (T47D)	GI50 (NCI-H23)	GI50 (UO-31)	GI50 (NCI/ADR-RES)	GI50 (U-251)	GI50 (A498)	GI50 (SW-620)	GI50 (BT-549)	GI50 (CAKI-1)	GI50 (MCF7)	GI50 (NCI-H522)
CCOC(=O)/C(SC#N)=C(/N)N1CCCC1	> 100 µM (inactive)	> 100 µM (inactive)	> 100 µM (inactive)	> 100 µM (inactive)	> 100 µM (inactive)	> 100 µM (inactive)	> 100 µM (inactive)	> 100 µM (inactive)	> 100 µM (inactive)	> 100 µM (inactive)	> 100 µM (inactive)	> 100 µM (inactive)	> 60 µM (inactive)	> 100 µM (inactive)	> 100 µM (inactive)	> 100 µM (inactive)	> 100 µM (inactive)	> 100 µM (inactive)
CCC(=O)OCN(C)c1nc(N(C)COC(=O)CC)nc(N(C)COC(=O)CC)n1	> 100 µM (inactive)	20.8 µM (inactive)	57.4 µM (inactive)	33.4 µM (inactive)	26.9 µM (inactive)	37 µM (inactive)	30.5 µM (inactive)	35.3 µM (inactive)	> 100 µM (inactive)	56.6 µM (inactive)	32.4 µM (inactive)	> 100 µM (inactive)	49 µM (inactive)	26.9 µM (inactive)	32.9 µM (inactive)	63.8 µM (inactive)	42 µM (inactive)	
CCC1(O)CC(O)c2c(O)c3c(c(O)c2C1C(=O)OC)C(=O)c1cccc(O)c1C3=O (centres undefined)	4.7 µM (inactive)	0.415 µM (active)	2.9 µM (inactive)	1.7 µM (inactive)	3.27 µM (inactive)	5.42 µM (inactive)	2.96 µM (inactive)	3.77 µM (inactive)	3.29 µM (inactive)	3.18 µM (inactive)	0.656 µM (active)	3.74 µM (inactive)	3.78 µM (inactive)	4.67 µM (inactive)	6.85 µM (inactive)	3.43 µM (inactive)	3.28 µM (inactive)	1.75 µM (inactive)
Cc1c(S(=O)(=O)c2ccccc2)c(N)n(CCN(C)C)c1C	> 100 µM (inactive)	> 100 µM (inactive)	> 100 µM (inactive)	> 100 µM (inactive)	> 100 µM (inactive)	> 100 µM (inactive)	> 100 µM (inactive)	> 100 µM (inactive)	> 100 µM (inactive)	> 100 µM (inactive)	> 100 µM (inactive)	> 100 µM (inactive)	> 100 µM (inactive)	> 100 µM (inactive)	36.1 µM (inactive)	> 100 µM (inactive)	> 100 µM (inactive)	> 100 µM (inactive)
Clc1ccc(OCc2nnc3sc(-c4ccc(-c5ccc(Cl)cc5Cl)o4)nn23)c(Cl)c1	19.7 µM (inactive)	18.6 µM (inactive)	16.3 µM (inactive)	20.4 µM (inactive)	22.7 µM (inactive)	23.4 µM (inactive)	35.5 µM (inactive)	19.5 µM (inactive)	21.6 µM (inactive)	25.8 µM (inactive)	20 µM (inactive)	19.8 µM (inactive)	17.4 µM (inactive)	34.7 µM (inactive)	21.4 µM (inactive)	28.7 µM (inactive)	31.6 µM (inactive)	17.8 µM (inactive)
Oc1ccc(C(=C(Br)c2ccccc2)c2ccc(O)cc2)cc1	4.83 µM (inactive)	5.48 µM (inactive)	10.9 µM (inactive)	11.1 µM (inactive)	1.91 µM (inactive)	13.1 µM (inactive)	> 10 µM (inactive)	10.7 µM (inactive)	10.4 µM (inactive)	6.59 µM (inactive)	3.32 µM (inactive)	4.51 µM (inactive)	18.3 µM (inactive)	3.57 µM (inactive)	4.44 µM (inactive)	16.6 µM (inactive)	3.13 µM (inactive)	4.47 µM (inactive)
COc1cc(C(=O)C2CC3(CCC2(O)c2cc(OC)c(OC)c(OC)c2)CC(=O)Nc2ccccc2C3=O)cc(OC)c1OC (centres undefined)	91 µM (inactive)	33 µM (inactive)	> 100 µM (inactive)	21.5 µM (inactive)	> 100 µM (inactive)	> 100 µM (inactive)	20.2 µM (inactive)	36.6 µM (inactive)	88.9 µM (inactive)	33.7 µM (inactive)	> 100 µM (inactive)	> 100 µM (inactive)	> 100 µM (inactive)	> 100 µM (inactive)	> 100 µM (inactive)	> 100 µM (inactive)	60.4 µM (inactive)	
